“And” between values parts separate entries of the source, which are not always exact repeats. Equal values may be shown once. Read-outs that look alike come from different tables or passages of the source.
What was measured:
[1] = target: receptor tyrosine kinase c-Met (Homo sapiens, UniProt P08581); test: In vitro c-Met kinase inhibitory activity; type: biochemical; conditions: two values per compound
From the text: Experimental Example 3: Study of In Vitro c-Met Kinase Inhibitory Activity
Since the screening results of 369 kinase profiles of compound DC621044 has shown that the compound has a certain inhibitory activity on c-Met. We further screened some compounds for their inhibitory activity on c-Met kinase.

TRKA = TRKA (Homo sapiens, UniProt P04629); test: Kinase profile screen: TRKA; type: biochemical; conditions: 50 nM
From the text: (§1) Experimental Example 2: Study on the Selectivity of the Kinase Profile of the Compound Due to compound's potent inhibitory activity against AXL, we selected one of the compounds, DC621044, to screen 369 kinase profiles in order to investigate the compound's selectivity to the kinase profile.

[2] = target: T1, receptor tyrosine kinase AXL (Homo sapiens, UniProt P30530); test: Enzyme activity of receptor tyrosine kinase AXL (ELISA); type: biochemical
T1 construct: 50 μL of AXL kinase domain recombinant protein diluted in reaction buffer was added to start the reaction; made in house; host or cells: insect cells (baculovirus expression system)
T1 sequence (P30530 536-807 limits assumed): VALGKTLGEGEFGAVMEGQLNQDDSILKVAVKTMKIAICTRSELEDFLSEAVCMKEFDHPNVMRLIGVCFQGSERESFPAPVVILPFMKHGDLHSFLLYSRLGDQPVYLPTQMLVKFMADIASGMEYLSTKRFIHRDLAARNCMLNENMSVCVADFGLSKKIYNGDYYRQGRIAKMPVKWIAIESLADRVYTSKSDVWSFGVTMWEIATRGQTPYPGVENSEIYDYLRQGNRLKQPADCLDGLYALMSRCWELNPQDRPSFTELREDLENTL
Procedure, shortened: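 AXL kinase domain recombinant protein reacted with ATP and compound (1% DMSO) in 50 mM HEPES pH 7.4, 50 mM MgCl2, 0.5 mM MnCl2, 0.2 mM Na3VO4, 1 mM DTT, 1 hour at 37° C. Phosphorylation detected by ELISA with HRP anti-mouse secondary, read at 490 nm; IC50 by four-parameter regression.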

PLK4/SAK = PLK4/SAK (Homo sapiens, UniProt O00444); test: Kinase profile screen: PLK4/SAK; type: biochemical; conditions: 50 nM
From the text: as §1

BRK = BRK (Homo sapiens, UniProt Q13882); test: Kinase profile screen: BRK; type: biochemical; conditions: 50 nM
From the text: as §1

ASK1/MAP3K5 = ASK1/MAP3K5 (Homo sapiens, UniProt Q99683); test: Kinase profile screen: ASK1/MAP3K5; type: biochemical; conditions: 50 nM
From the text: as §1

FYN = FYN (Homo sapiens, UniProt P06241); test: Kinase profile screen: FYN; type: biochemical; conditions: 50 nM
From the text: as §1

AXL = AXL (Homo sapiens, UniProt P30530); test: Kinase profile screen: AXL; type: biochemical; conditions: 50 nM
From the text: as §1

HIPK4 = HIPK4 (Homo sapiens, UniProt Q8NE63); test: Kinase profile screen: HIPK4; type: biochemical; conditions: 50 nM
From the text: as §1

RON/MSTIR = RON/MSTIR (Homo sapiens, UniProt Q04912); test: Kinase profile screen: RON/MSTIR; type: biochemical; conditions: 50 nM
From the text: as §1

c-Src = c-Src (Homo sapiens, UniProt P12931); test: Kinase profile screen: c-Src; type: biochemical; conditions: 50 nM
From the text: as §1

IRR/INSRR = IRR/INSRR (Homo sapiens, UniProt P14616); test: Kinase profile screen: IRR/INSRR; type: biochemical; conditions: 50 nM
From the text: as §1

BaF3/TEL-AXL cells = test: Proliferation of BaF3/TEL-AXL cells; type: cell-based
From the text: Experimental Example 4: Effect of the Compound on the Proliferation Effect of BaF3/TEL-AXL Cells
Based on the above-mentioned enzyme activity research results, we further explored the effect of the compound on cell proliferation mediated by receptor tyrosine kinase AXL.

TRKB = TRKB (Homo sapiens, UniProt Q16620); test: Kinase profile screen: TRKB; type: biochemical; conditions: 50 nM
From the text: as §1

EPHA6 = EPHA6 (Homo sapiens, UniProt Q9UF33); test: Kinase profile screen: EPHA6; type: biochemical; conditions: 50 nM
From the text: as §1

c-MET = c-MET (Homo sapiens, UniProt P08581); test: Kinase profile screen: c-MET; type: biochemical; conditions: 50 nM
From the text: as §1

DDR1 = DDR1 (Homo sapiens, UniProt Q08345); test: Kinase profile screen: DDR1; type: biochemical; conditions: 50 nM
From the text: as §1

Sequence of receptor tyrosine kinase c-Met (P08581 25-1390): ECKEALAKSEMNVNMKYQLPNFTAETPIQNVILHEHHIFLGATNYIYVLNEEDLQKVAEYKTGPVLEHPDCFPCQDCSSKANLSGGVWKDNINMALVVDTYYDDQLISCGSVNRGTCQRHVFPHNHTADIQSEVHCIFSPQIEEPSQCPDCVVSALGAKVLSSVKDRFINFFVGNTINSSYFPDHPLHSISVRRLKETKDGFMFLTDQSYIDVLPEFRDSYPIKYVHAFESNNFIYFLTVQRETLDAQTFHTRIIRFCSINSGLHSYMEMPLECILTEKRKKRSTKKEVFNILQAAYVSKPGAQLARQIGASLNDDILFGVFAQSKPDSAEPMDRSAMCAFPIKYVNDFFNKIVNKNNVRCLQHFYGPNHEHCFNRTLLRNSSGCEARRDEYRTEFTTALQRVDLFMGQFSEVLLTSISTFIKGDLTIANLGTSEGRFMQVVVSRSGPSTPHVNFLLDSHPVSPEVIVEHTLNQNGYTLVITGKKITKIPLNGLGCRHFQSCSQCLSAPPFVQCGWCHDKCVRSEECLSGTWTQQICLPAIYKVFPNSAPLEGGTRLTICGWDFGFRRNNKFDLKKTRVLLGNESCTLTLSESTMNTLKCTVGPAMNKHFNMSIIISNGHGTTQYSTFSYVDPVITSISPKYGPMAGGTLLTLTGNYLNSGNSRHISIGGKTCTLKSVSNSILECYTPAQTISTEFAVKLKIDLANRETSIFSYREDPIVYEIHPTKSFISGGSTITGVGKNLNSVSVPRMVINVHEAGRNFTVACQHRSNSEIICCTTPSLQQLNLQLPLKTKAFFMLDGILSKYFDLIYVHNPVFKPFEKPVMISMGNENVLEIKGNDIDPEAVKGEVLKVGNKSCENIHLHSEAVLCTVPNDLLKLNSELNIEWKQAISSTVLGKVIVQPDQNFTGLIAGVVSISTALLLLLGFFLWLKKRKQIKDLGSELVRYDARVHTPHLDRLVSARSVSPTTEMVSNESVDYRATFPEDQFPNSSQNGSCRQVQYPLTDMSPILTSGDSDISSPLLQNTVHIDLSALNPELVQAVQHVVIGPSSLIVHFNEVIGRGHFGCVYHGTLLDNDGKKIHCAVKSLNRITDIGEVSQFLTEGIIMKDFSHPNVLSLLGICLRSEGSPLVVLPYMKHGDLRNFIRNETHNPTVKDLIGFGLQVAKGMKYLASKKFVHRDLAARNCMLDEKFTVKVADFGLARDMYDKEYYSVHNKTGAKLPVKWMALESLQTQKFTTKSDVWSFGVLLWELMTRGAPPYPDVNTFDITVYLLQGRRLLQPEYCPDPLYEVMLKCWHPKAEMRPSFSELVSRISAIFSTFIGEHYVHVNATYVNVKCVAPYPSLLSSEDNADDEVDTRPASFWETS
Sequence of c-Src (P12931 whole entry, species assumed): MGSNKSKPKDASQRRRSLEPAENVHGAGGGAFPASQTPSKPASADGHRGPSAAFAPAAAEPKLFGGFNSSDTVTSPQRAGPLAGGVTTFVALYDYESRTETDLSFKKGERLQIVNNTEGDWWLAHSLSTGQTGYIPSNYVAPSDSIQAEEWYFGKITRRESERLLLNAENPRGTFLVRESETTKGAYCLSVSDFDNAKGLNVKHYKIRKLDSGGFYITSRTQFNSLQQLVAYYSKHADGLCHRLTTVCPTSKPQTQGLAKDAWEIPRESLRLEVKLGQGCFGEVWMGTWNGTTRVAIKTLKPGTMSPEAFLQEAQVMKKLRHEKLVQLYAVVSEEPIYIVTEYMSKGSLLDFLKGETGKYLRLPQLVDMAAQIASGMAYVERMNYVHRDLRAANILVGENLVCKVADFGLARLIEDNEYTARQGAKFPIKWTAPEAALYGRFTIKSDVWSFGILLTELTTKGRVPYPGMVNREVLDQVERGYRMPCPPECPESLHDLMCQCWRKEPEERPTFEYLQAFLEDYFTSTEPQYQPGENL
Sequence of TRKA (P04629 33-796, species assumed): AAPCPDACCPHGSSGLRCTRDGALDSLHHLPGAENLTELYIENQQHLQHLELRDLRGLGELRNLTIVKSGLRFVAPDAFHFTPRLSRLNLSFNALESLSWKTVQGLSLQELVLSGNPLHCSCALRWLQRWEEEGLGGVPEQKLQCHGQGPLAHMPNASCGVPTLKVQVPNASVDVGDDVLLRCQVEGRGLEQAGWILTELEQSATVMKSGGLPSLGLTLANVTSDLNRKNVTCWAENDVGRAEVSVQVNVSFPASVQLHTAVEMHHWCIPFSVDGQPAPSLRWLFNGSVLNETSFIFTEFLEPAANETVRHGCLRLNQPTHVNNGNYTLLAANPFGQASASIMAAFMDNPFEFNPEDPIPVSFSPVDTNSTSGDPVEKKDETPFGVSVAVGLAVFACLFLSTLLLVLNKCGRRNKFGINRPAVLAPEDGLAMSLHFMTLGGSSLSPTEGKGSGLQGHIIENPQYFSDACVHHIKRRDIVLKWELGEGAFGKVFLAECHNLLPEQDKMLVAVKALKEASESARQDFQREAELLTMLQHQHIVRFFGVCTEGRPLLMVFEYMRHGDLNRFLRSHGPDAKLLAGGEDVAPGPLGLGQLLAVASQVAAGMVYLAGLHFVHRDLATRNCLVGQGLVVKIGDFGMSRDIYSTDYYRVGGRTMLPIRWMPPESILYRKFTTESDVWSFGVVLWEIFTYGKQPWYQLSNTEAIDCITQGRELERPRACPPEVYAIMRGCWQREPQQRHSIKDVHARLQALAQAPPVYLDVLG
Sequence of RON/MSTIR (Q04912 25-1400): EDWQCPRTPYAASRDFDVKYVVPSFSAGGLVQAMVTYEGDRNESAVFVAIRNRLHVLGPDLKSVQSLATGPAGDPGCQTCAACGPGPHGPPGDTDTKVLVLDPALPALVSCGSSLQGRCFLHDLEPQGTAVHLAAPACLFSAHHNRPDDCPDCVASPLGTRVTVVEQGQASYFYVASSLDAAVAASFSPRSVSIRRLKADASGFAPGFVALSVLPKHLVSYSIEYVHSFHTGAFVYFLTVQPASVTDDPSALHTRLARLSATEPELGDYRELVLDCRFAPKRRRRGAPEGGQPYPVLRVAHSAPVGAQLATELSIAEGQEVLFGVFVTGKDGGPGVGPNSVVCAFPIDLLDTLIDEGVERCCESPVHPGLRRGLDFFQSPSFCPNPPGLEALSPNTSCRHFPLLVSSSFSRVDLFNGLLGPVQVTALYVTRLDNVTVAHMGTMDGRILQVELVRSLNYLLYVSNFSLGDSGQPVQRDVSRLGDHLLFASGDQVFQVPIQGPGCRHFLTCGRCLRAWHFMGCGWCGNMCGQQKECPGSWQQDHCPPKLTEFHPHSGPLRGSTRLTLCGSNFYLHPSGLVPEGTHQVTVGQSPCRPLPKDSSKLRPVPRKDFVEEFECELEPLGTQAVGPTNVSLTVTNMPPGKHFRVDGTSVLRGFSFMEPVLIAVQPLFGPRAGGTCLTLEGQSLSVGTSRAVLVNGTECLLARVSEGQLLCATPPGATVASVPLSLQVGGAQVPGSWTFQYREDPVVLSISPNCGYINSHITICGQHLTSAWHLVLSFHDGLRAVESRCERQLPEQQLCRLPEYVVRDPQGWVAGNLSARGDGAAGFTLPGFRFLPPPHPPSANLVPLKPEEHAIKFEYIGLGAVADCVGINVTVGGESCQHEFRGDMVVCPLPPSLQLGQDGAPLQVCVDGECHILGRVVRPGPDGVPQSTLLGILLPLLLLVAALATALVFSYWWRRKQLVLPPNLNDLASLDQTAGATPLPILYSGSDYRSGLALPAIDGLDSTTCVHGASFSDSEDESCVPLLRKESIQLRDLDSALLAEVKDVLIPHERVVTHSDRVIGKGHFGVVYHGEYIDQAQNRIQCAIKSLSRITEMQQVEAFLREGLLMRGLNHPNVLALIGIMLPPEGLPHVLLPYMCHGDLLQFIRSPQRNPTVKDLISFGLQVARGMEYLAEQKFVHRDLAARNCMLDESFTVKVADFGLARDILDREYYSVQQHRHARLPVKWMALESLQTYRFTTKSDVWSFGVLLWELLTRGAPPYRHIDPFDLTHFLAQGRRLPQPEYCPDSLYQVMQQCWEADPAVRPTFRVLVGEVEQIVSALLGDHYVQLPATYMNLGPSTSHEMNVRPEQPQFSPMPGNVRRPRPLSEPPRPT
Sequence of EPHA6 (Q9UF33 23-1036, species assumed): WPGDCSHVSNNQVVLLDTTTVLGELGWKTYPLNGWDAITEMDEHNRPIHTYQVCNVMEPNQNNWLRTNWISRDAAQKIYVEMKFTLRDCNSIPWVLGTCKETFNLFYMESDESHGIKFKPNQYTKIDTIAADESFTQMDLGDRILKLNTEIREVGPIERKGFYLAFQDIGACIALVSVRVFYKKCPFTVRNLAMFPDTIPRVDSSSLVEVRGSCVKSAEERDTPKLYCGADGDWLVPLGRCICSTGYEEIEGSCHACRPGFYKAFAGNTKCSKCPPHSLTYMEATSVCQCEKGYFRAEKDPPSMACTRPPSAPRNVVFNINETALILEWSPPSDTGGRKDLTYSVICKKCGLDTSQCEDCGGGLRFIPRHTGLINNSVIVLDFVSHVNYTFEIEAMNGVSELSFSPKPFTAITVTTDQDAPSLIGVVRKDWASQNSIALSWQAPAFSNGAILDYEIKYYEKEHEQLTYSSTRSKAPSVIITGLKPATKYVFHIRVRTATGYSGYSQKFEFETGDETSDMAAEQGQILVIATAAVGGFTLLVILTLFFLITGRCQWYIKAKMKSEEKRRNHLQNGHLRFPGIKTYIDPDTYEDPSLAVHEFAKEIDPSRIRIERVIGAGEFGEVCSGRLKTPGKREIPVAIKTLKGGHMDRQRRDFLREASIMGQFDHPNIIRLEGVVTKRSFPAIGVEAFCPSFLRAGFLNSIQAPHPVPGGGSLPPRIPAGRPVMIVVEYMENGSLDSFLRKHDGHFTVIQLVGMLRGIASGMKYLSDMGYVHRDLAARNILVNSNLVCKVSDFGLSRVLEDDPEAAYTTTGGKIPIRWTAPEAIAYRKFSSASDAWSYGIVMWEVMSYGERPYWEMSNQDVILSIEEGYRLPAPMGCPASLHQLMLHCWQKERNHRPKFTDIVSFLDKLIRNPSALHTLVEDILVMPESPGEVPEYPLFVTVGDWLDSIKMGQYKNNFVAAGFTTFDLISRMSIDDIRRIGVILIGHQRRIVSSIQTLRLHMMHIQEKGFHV

`COCCOc1cc2ncnc(Oc3ccc(NC(=O)c4c5n(n(-c6ccc(F)cc6)c4=O)CCCC5)cc3F)c2cc1OCCOC` [DC621044, N-(4-((6,7-bis(2-methoxyethoxy)quinazolin-4-yl)oxy)-3-fluorophenyl)-1-(4-fluorophenyl)-2-oxo-1,2,4,5,6,7-hexahydropyrazolo[1,5-a]pyridine-3-formamide] was tested, and the “c-Met Inhibitory rate (%)” value ([1]; 1 nM, 0.001 µM) was 30.6% and 52.3%, the “c-Met Inhibitory rate (%)” value ([1]; 10 nM, 0.01 µM) was 75.1% and the inhibition at 0.01 µM ([1]; 10 nM, read-out: c-Met Inhibitory rate (%)) was 69.4%. The “c-Met Inhibitory rate (%)” value ([1]; 100 nM, 0.1 µM) was 100%, the inhibition at 0.1 µM ([1]; 100 nM, read-out: c-Met Inhibitory rate (%)) was 97.1% and the inhibition at 0.05 µM (TRKA; the first time) was 59.2%. For the same molecule, the inhibition at 0.05 µM (TRKA; the second time) was 60.3%, the IC50 [2] was 7.6 ± 0.3 nM and the inhibition at 0.001 µM ([2]; 1 nM, read-out: AXL activity Inhibitory rate(%)) was 20.7%. It also gave an inhibition at 0.01 µM ([2]; 10 nM, read-out: AXL activity Inhibitory rate(%)) of 61.2%, an inhibition at 0.1 µM ([2]; 100 nM, read-out: AXL activity Inhibitory rate(%)) of 80.7% and an inhibition at 0.05 µM (PLK4/SAK; the first time) of 27.2%. For the same molecule, the inhibition at 0.05 µM (PLK4/SAK; the second time) was 29.8%, the inhibition at 0.05 µM (BRK; the first time) was 18.9% and the inhibition at 0.05 µM (BRK; the second time) was 19.4%. It also gave an inhibition at 0.05 µM (ASK1/MAP3K5; the first time) of 22.5%, an inhibition at 0.05 µM (ASK1/MAP3K5; the second time) of 23.5% and an inhibition at 0.05 µM (FYN; the first time) of 22.4%. It also gave an inhibition at 0.05 µM (FYN; the second time) of 27.7%, an inhibition at 0.05 µM (AXL; the first time) of 94.6% and an inhibition at 0.05 µM (AXL; the second time) of 95.2%. It also gave an inhibition at 0.05 µM (HIPK4; the first time) of 77.2%, an inhibition at 0.05 µM (HIPK4; the second time) of 77.2% and an inhibition at 0.05 µM (RON/MSTIR; the first time) of 25.9%. It also gave an inhibition at 0.05 µM (RON/MSTIR; the second time) of 27.2%, an inhibition at 0.05 µM (c-Src; the first time) of 20% and an inhibition at 0.05 µM (c-Src; the second time) of 21%. The inhibition at 0.05 µM (IRR/INSRR; the first time) was 25.8%, the inhibition at 0.05 µM (IRR/INSRR; the second time) was 28.3% and the “BaF3/TEL-AXL proliferation Inhibitory rate (%)” value (BaF3/TEL-AXL cells; 1 nM, two values per compound, 0.001 µM) was 64.2%. The “BaF3/TEL-AXL proliferation Inhibitory rate (%)” value (BaF3/TEL-AXL cells; 10 nM, two values per compound, 0.01 µM) was 75.9%, the “BaF3/TEL-AXL proliferation Inhibitory rate (%)” value (BaF3/TEL-AXL cells; 100 nM, two values per compound, 0.1 µM) was 88.2% and the inhibition at 0.001 µM (BaF3/TEL-AXL cells; BaF3/TEL-AXL, 1 nM, two values per compound, read-out: BaF3/TEL-AXL proliferation Inhibitory rate (%)) was 78.9%. The inhibition at 0.01 µM (BaF3/TEL-AXL cells; BaF3/TEL-AXL, 10 nM, two values per compound, read-out: BaF3/TEL-AXL proliferation Inhibitory rate (%)) was 79.8%, the inhibition at 0.1 µM (BaF3/TEL-AXL cells; BaF3/TEL-AXL, 100 nM, two values per compound, read-out: BaF3/TEL-AXL proliferation Inhibitory rate (%)) was 85.9% and the inhibition at 0.001 µM (BaF3/TEL-AXL cells; BaF3/TEL-AXL, concentration of 1 nM, read-out: inhibited the proliferation of BaF3/TEL-AXL cells) was greater than 70%. It also gave an inhibition at 0.05 µM (TRKB; the first time) of 52.1%, an inhibition at 0.05 µM (TRKB; the second time) of 52.2% and an inhibition at 0.05 µM (EPHA6; the first time) of 57.3%. For the same molecule, the inhibition at 0.05 µM (EPHA6; the second time) was 57.8%, the inhibition at 0.05 µM (c-MET; the first time) was 98.6% and the inhibition at 0.05 µM (c-MET; the second time) was 99%. For the same molecule, the inhibition at 0.05 µM (DDR1; the first time) was 64.1% and the inhibition at 0.05 µM (DDR1; the second time) was 64.2%.
